Results from US20100204151A1, “USE OF A PEPTIDE AS A THERAPEUTIC AGENT” (priority 2007, published 2010).

How the values were obtained:
[1] = system: Human Peripheral Blood Mononuclear Cells (PBMC); test: B cell proliferation assay (SAC plus Interleukin-2 stimulated PBMC, 3H-thymidine); type: cell-based; settings: 10 micrograms per ml, 3 days plus 12 hours 3H-thymidine
[2] = in vitro; settings: human, MRC-5 cells (embryonal lung fibroblasts)
[3] = system: Pseudomonas aeruginosa; type: cell-based; settings: 5 micrograms per ml
[4] = system: hepatitis B virus (HBV) ayw strain; test: HBV replication assay in HepG2-2.2.15 cells (TaqMan PCR of secreted HBV DNA); type: cell-based; settings: test peptide 10 micrograms per ml; six days; HBV DNA in supernatant
[5] = system: Streptococcus pneumoniae; type: cell-based; settings: 5 micrograms per ml
[6] = system: A549 cells; test: Apoptosis prevention assay (C2 ceramide, Annexin-5); type: cell-based, human; settings: 10 micrograms per ml, 30 min pretreatment, then C2 ceramide
[7] = system: RAW 264.7 cells; test: Phagocytosis assay (Fluorescein-labeled Escherichia coli, flow cytometry); type: cell-based, mouse; settings: 10 micrograms per ml, 30 min preincubation, 60 min ingestion
[8] = system: A549 cells; test: Propidium iodide cell cycle assay; type: cell-based, human; settings: 10 micrograms per ml, 24 hours, propidium iodide FACS
Procedure: Human A549 cells (carcinomic human alveolar basal epithelial cells) were utilized in the experiments employing the Propidium iodide cell cycle assay. […] Propidium iodide is an intercalating agent and a fluorescent molecule that can be used to stain DNA. […] Thereafter, cells were pelleted at 1500 rpm for 5 min and resuspended in Propidium iodide solution in PBS. After incubation for 40 min at 37° C., cells were analyzed in the FACS.

[9] = system: HCMV strain AD169; test: HCMV plaque reduction assay in MRC-5 cells
[10] = system: A549 cells; test: Apoptosis induction assay (Annexin-5); type: cell-based, human; settings: 10 micrograms per ml, 24 hours
Source text: Human A549 cells (carcinomic human alveolar basal epithelial cells) were utilized in the experiments employing the Annexin-5 apoptosis assay.

[11] = system: Primary Human endothelial cells (HUVEC); test: Endothelial cell migration assay; type: cell-based; settings: 10 micrograms per ml, 22 hours
[12] = Cytotoxicity in the HBV assay (dye uptake cell viability); type: cell-based; settings: human, HepG2-2.2.15 cells, test peptide 10 micrograms per ml
[13] = system: spleen cells; test: Th1/Th2 cytokine profiling assay (Ovalbumin-restimulated spleen cells, CBA kit); type: cell-based, Balb/c mice; settings: 10 micrograms per ml; Ovalbumin restimulation; 72 hours
[14] = in vitro; settings: human, CEM-SS cells
[15] = system: HIV-1IIIB; test: HIV-1 antiviral assay (CPE reduction) in CEM-SS cells; type: cell-based; settings: for % CPE reduction in HIV-1 infected CEM-SS cells: test peptide 10 micrograms per ml, 6 days post-infection, MTS; for antiviral activity of positive control compounds: HIV-1 assay validity statement
[16] = system: MRSA; settings: 5 micrograms per ml
[17] = system: HUVEC; test: Endothelial tube formation assay; type: cell-based, human; settings: 10 micrograms per ml, 20 hours
Source text: Positive control was vehicle only.

[18] = system: Human Peripheral Blood Mononuclear Cells (PBMC); test: T cell proliferation assay (PHA-stimulated PBMC, 3H-thymidine); settings: 10 micrograms per ml, 3 days plus 12 hours 3H-thymidine
[19] = system: macrophages prepared from PBMC; test: TNF alpha production assay (LPS-stimulated macrophages, ELISA); type: cell-based, human; settings: 10 micrograms per ml, lipopolysaccharide 200 ng/ml, overnight
Source text: Not stimulated macrophages served as negative background control.

[20] = system: CEM-SS cells; test: Cytotoxicity in the HIV-1 assay (MTS cell viability); settings: test peptide 10 micrograms per ml

Ac-HWAVGHL-NH2 [Acetyl-GRP (20-26), Ac-His-Trp-Ala-Val-Gly-His-Leu-NH2]
% of SAC/IL2 induced control [1]: 123.6% | viability at 144 h [2]: 100% | % inhibition [3]: 0.0% | % inhibition of HBV replication in HEP G2 cells [4]: 47.8% | % inhibition [5]: 0.0% | % prevention of ceramide induced apoptosis [6]: 0.0% | % of control phagocytosis [7]: 102.9% | Cell cycle analysis G0/G1 [8]: 59.2 | Cell cycle analysis G2/M [8]: 9.6 | Cell cycle analysis S [8]: 31.2 | % plaque reduction ([9]; HCMV in MRC-5 cells, peptide 10 micrograms per ml, 7-10 days): 3.2% | % of induction [10]: 1.1% | % inhibition of migration [11]: 50% | viability at 144 h, 10 micrograms per ml [12]: 95.3% | IFNγ spleen cells; TH1 response (% of control) [13]: 117.9 % of control | IL-2 spleen cells (% of control) [13]: 202.7 % of control | IL-4 spleen cells; TH2 response (% of control) [13]: 168.7 % of control | IL-5 spleen cells; TH2 response (% of control) [13]: 102.5 % of control | TNF-a spleen cells; TH1 response (% of control) [13]: 145.8 % of control | viability at 10 micrograms per ml [14]: 100% | % CPE reduction in HIV-1 infected CEM-SS cells [15]: 0.0% | % inhibition [16]: 0.0% | % inhibition of tube formation [17]: 24% | % of PHA induced control [18]: 97.5% | % of LPS induction [19]: 102.4%

Nc1nc(O)c2ncn(COC(CO)CO)c2n1 [Ganciclovir, reference compound]
antiviral activity of positive control compound ([9]; HCMV assay validity statement): expected levels of antiviral activity

Cc1cn([C@H]2C[C@H](N=[N+]=[N-])[C@@H](CO)O2)c(=O)[nH]c1=O [AZT]
antiviral activity of positive control compounds [15]: expected levels of antiviral activity | % CPE reduction in HIV-1 infected CEM-SS cells [15]: 99% | % Cell viability [20]: 97%

CC(C)(C)NC(=O)[C@@H]1CN(Cc2cccnc2)CCN1C[C@@H](O)C[C@@H](Cc1ccccc1)C(=O)N[C@H]1c2ccccc2C[C@H]1O [Indinavir, indinavir]
antiviral activity of positive control compounds [15]: expected levels of antiviral activity
